Reference: ChEMBL document CHEMBL1135384, “Convenient synthesis and evaluation of enzyme inhibitory activity of several N-alkyl-, N-phenylalkyl, and cyclic isourea derivatives of 5a-carba-alpha-DL-fucopyranosylamine” (Bioorg Med Chem Lett, 2002)

Key:
Beta-galactosidase [1] = target: T1, Beta-galactosidase (Bos taurus, UniProt Q58D55); test: Inhibitory activity against Beta-galactosidase in bovine liver was determined;NI means no inhibition
T1 sequence (Q58D55 whole entry): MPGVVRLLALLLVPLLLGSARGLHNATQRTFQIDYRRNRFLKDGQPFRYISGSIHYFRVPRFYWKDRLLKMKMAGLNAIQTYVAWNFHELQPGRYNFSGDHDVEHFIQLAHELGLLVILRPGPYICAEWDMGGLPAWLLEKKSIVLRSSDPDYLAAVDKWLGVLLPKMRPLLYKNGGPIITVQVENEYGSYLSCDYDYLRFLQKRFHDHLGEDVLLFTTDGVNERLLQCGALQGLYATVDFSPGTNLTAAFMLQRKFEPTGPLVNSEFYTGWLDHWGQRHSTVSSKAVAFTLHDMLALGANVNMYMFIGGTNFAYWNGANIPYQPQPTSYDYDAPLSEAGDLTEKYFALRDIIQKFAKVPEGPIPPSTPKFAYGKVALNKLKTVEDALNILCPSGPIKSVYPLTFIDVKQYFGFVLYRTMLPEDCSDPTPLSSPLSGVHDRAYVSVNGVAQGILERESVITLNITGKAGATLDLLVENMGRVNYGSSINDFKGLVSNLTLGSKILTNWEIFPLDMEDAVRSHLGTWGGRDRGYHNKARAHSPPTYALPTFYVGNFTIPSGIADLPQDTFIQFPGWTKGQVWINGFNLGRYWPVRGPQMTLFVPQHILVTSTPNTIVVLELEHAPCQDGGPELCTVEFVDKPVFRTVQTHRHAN

Beta-galactosidase [2] = target: T1, Beta-galactosidase; test: Inhibitory activity against Beta-galactosidase in bovine liver was determined; type: tissue-based

SMILES | IC50 (Beta-galactosidase [1]) | IC50 (Beta-galactosidase [2])
CCCCNC1CC(C)[C@@H](O)[C@H](O)[C@H]1O (some centres undefined) | Not Active | 
CC1CC2N=C(NCc3ccccc3)O[C@@H]2[C@@H](O)[C@@H]1O (some centres undefined) | Not Active | 
CC1CC2N=C(Nc3ccccc3)O[C@@H]2[C@@H](O)[C@@H]1O (some centres undefined) | Not Active | 
CCNC1CC(C)[C@@H](O)[C@H](O)[C@H]1O (some centres undefined) | Not Active | 
CCCCCCCCNC1CC(C)[C@@H](O)[C@H](O)[C@H]1O (some centres undefined) |  | 37 µM

Further lines, with some results ahead:

IC50 (Beta-galactosidase [1]) | SMILES | IC50 (Beta-galactosidase [2])
Not Active | C[C@@H]1NC[C@@H](O)[C@H](O)[C@@H]1O [DEOXYFUCONOJIRIMYCIN] | 
Not Active | CCCCNC1=NC2CC(C)[C@@H](O)[C@H](O)[C@H]2O1 (some centres undefined) | 
Not Active | C[C@@H]1C[C@H](N)C(O)C(O)[C@@H]1O (single isomer, unassigned) | 
Not Active | C[C@@H]1C[C@@H](N)C(O)C(O)[C@@H]1O (single isomer, unassigned) | 
